Among the data in PubChem BioAssay (NCI) are GI50 and TGI values, retold here.

The structures appear in SMILES notation.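 Where inhibition never reached the appropriate level, the endpoint shown equals the highest concentration tested. Otherwise, values were interpolated linearly from a five-concentration, 48-hour dose response in 96-well plates. Abbreviation: GI50, concentration required for 50% inhibition of growth. TGI: concentration producing complete growth inhibition.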

Test systems include ACHN renal; NCI/ADR-RES ovarian; U251 CNS; HL-60(TB) leukemia; HCT-116 colon; NCI-H226 lung; UO-31 renal; CCRF-CEM leukemia; SNB-19 CNS; K-562 leukemia.
Assay in all cases: NCI tumour cell line growth inhibition, 48 h

Regarding `Cc1cc(NC(=O)NCCOc2ccc(N3C(N)=NC(N)=NC3(C)C)cc2Cl)ccc1S(=O)(=O)F`, the GI50 is 25 µM in the experiment on ACHN renal; more than 100 µM in the experiment on NCI/ADR-RES ovarian; 0.716 µM in the experiment with U251 CNS; 1.8 µM with HL-60(TB) leukemia; 0.545 µM in the experiment on HCT-116 colon; 8.57 µM in the experiment on NCI-H226 lung. For the same molecule, the GI50 in the experiment on UO-31 renal was more than 100 µM; in the experiment on CCRF-CEM leukemia it was 0.805 µM; in the experiment with SNB-19 CNS it was 4.31 µM; with K-562 leukemia, 0.599 µM. In addition, the TGI is more than 100 µM in the experiment with ACHN renal; more than 100 µM with NCI/ADR-RES ovarian; more than 72.9 µM in the experiment on U251 CNS; 36.8 µM in the experiment on HL-60(TB) leukemia; more than 100 µM with HCT-116 colon; more than 100 µM with NCI-H226 lung. Moreover, the TGI in the experiment with UO-31 renal is more than 100 µM; in the experiment on CCRF-CEM leukemia it was more than 67.6 µM; in the experiment with SNB-19 CNS it was more than 100 µM; in the experiment on K-562 leukemia, more than 100 µM.
On to `COc1ccc(C2=Nn3c(nnc3-c3ccc(F)c(Cl)c3)SC2)cc1`, for which the GI50 was more than 100 µM with ACHN renal; more than 100 µM in the experiment on NCI/ADR-RES ovarian; more than 100 µM in the experiment with U251 CNS; more than 100 µM in the experiment on HL-60(TB) leukemia; 61.6 µM in the experiment on HCT-116 colon; more than 100 µM with NCI-H226 lung. Moreover, the GI50 was more than 100 µM in the experiment with UO-31 renal, 57.8 µM in the experiment with CCRF-CEM leukemia, more than 100 µM in the experiment with SNB-19 CNS and more than 100 µM with K-562 leukemia. For the same molecule, the TGI with ACHN renal, in the experiment on NCI/ADR-RES ovarian, in the experiment with U251 CNS, in the experiment on HL-60(TB) leukemia, in the experiment with HCT-116 colon and with NCI-H226 lung was more than 100 µM in each case. The TGI in the experiment on UO-31 renal, in the experiment on CCRF-CEM leukemia, with SNB-19 CNS and with K-562 leukemia was more than 100 µM in each case.
With `COc1ccc(CCN2CCCn3c2nc2ccccc2c3=O)cc1`, the GI50 with ACHN renal is 0.978 µM; in the experiment on NCI/ADR-RES ovarian it was 0.0432 µM; with U251 CNS, 0.0552 µM; in the experiment with HL-60(TB) leukemia it was 0.038 µM; in the experiment with HCT-116 colon, 0.0493 µM; in the experiment with NCI-H226 lung, 6.43 µM. For the same molecule, the GI50 was 0.876 µM with UO-31 renal, 0.162 µM in the experiment with CCRF-CEM leukemia, 0.629 µM in the experiment with SNB-19 CNS and less than 0.0205 µM in the experiment with K-562 leukemia. Further, the TGI with ACHN renal is more than 100 µM; in the experiment on HL-60(TB) leukemia, 0.982 µM; in the experiment on HCT-116 colon, more than 100 µM; with NCI-H226 lung, more than 100 µM; in the experiment on UO-31 renal, more than 100 µM; in the experiment on CCRF-CEM leukemia it was more than 100 µM. Also, the TGI with SNB-19 CNS and in the experiment with K-562 leukemia was more than 100 µM throughout.
For the molecule `CN[C@@H](C)C(=O)N[C@H](C(=O)N1CCC[C@H]1c1nc(C(=O)c2ccc(F)cc2)cs1)C1CCCCC1`, the GI50 is 26.6 µM in the experiment with ACHN renal; 21.2 µM with NCI/ADR-RES ovarian; 15.6 µM with U251 CNS; 3.69 µM in the experiment on HL-60(TB) leukemia; 27 µM with HCT-116 colon; 31.2 µM in the experiment with NCI-H226 lung. The GI50 in the experiment with UO-31 renal is 36.1 µM; in the experiment with CCRF-CEM leukemia it was 20.5 µM; in the experiment on SNB-19 CNS, 53.9 µM; with K-562 leukemia, 17 µM. Moreover, the TGI in the experiment with ACHN renal is more than 100 µM; in the experiment with NCI/ADR-RES ovarian, more than 66 µM; in the experiment with U251 CNS, 33.3 µM; in the experiment on HL-60(TB) leukemia, 20 µM; with HCT-116 colon it was more than 95.5 µM; with NCI-H226 lung it was more than 100 µM. Further, the TGI in the experiment with UO-31 renal was more than 94.3 µM; in the experiment with CCRF-CEM leukemia, more than 84.6 µM; in the experiment with SNB-19 CNS it was more than 100 µM; with K-562 leukemia, 38.7 µM.
On to `COc1cc(/C=C/C(=O)c2c(C)n([O-])c3ccccc3[n+]2=O)cc(OC)c1OC`, for which the GI50 in the experiment with ACHN renal is 10.8 µM; in the experiment on NCI/ADR-RES ovarian, 4.02 µM; in the experiment on U251 CNS, 5.14 µM; in the experiment with HL-60(TB) leukemia, 5.24 µM; in the experiment on HCT-116 colon, 2.56 µM; in the experiment with NCI-H226 lung, 15.2 µM. The GI50 is 4.5 µM in the experiment with UO-31 renal, 3.66 µM with CCRF-CEM leukemia, 10.5 µM in the experiment with SNB-19 CNS and 5.88 µM in the experiment with K-562 leukemia. The TGI in the experiment on ACHN renal was 22.7 µM; in the experiment on NCI/ADR-RES ovarian it was 20 µM; with U251 CNS, 17.2 µM; in the experiment on HL-60(TB) leukemia, more than 100 µM; with HCT-116 colon, 13.8 µM; in the experiment with NCI-H226 lung it was 34 µM. For the same molecule, the TGI in the experiment on UO-31 renal is 17.5 µM; in the experiment with CCRF-CEM leukemia, 23.3 µM; in the experiment with SNB-19 CNS it was 23.3 µM; in the experiment on K-562 leukemia it was more than 100 µM.
For the molecule `COC(=O)c1csc(-c2csc(CCNC(=O)OC(C)(C)C)n2)n1`, the TGI in the experiment on ACHN renal, in the experiment with NCI/ADR-RES ovarian, with U251 CNS, in the experiment with HL-60(TB) leukemia, in the experiment with HCT-116 colon and with NCI-H226 lung was more than 100 µM each time. Besides, the TGI in the experiment with UO-31 renal, with CCRF-CEM leukemia, with SNB-19 CNS and in the experiment on K-562 leukemia was more than 100 µM in each case.
